Results reported in the supplement of paper PMC10307832.

What was measured:
Test in all cases: relative viability (nuclei count vs DMSO), 5 days (fraction); higher = more cells survive
CUDC-101 = compound: C#Cc1cccc(Nc2ncnc3cc(OC)c(OCCCCCCC(=O)NO)cc23)c1 [CUDC-101]
In short: (§1)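 A plate was accepted only when its control CV was below 25% and the cells had doubled at least once. Viability is defined from nuclear counts as treated wells divided by vehicle wells, with the median taken across plates. That median covers lung cancer cell lines grown in 1536-well plates, dosed by pinning at five √10-spaced library-drug concentrations, and counted in MetaXpress from 4× Hoechst images after 5 days.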

Vandetanib = compound: COc1cc2/c(=N/c3ccc(Br)cc3F)nc[nH]c2cc1OCC1CCN(C)CC1 [Vandetanib]
In short: as §1

NVP-TAE684 = compound: COc1cc(N2CCC(N3CCN(C)CC3)CC2)ccc1Nc1ncc(Cl)c(Nc2ccccc2S(=O)(=O)C(C)C)n1 [NVP-TAE684]
In short: as §1

Vandetanib + Crizotinib = compound: COc1cc2/c(=N/c3ccc(Br)cc3F)nc[nH]c2cc1OCC1CCN(C)CC1 [Vandetanib] + C[C@@H](Oc1cc(-c2cnn(C3CCNCC3)c2)cnc1N)c1c(Cl)ccc(F)c1Cl [Crizotinib] (partner 1 µM)
In short: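 Nuclei were stained with Hoechst during a one-step fixation (final 0.05% Triton X-100, 1% formaldehyde, 1 ug/ml Hoechst) carried out 5 days after dosing, then counted on 4× images. The cells, lung cancer lines in 1536-well plates, had been dosed by pin tool the day after seeding with one drug alone or a fixed anchor-drug dose plus five library-drug doses (not always all listed) in √10 steps. Relative viability is the nuclei count in treated wells divided by that in vehicle wells, and each value is the median of duplicate plates.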

Row | Cell Line | relative viability (CUDC-101; 0.01 µM) | relative viability (CUDC-101; 0.03162 µM) | relative viability (CUDC-101; 0.1 µM) | relative viability (CUDC-101; 0.3162 µM) | relative viability (CUDC-101; 1 µM) | relative viability (Vandetanib; 0.02 µM) | relative viability (Vandetanib; 0.06325 µM) | relative viability (Vandetanib; 0.2 µM) | relative viability (Vandetanib; 0.6325 µM) | relative viability (Vandetanib; 2 µM) | relative viability (NVP-TAE684; 0.2 µM) | relative viability (NVP-TAE684; 0.6325 µM) | relative viability (Vandetanib + Crizotinib; first compound 0.02 µM) | relative viability (Vandetanib + Crizotinib; first compound 0.06325 µM) | relative viability (Vandetanib + Crizotinib; first compound 0.2 µM) | relative viability (Vandetanib + Crizotinib; first compound 0.6325 µM) | relative viability (Vandetanib + Crizotinib; first compound 2 µM) | relative viability (NVP-TAE684; 2 µM)
1 | NCI-H1299 | 1.01 | 0.998 | 1.02 | 1.01 | 0.919 | 1.01 | 0.963 | 1.05 | 1.01 | 1.02 | 1.05 | 1.01 | 0.932 | 0.902 | 0.927 | 0.967 | 0.95 | –
2 | NCI-H1355 | 1.03 | 0.957 | 0.967 | 0.976 | 0.883 | 0.997 | 0.892 | 1.01 | 1.02 | 0.957 | 0.961 | 0.921 | 1.03 | 0.976 | 0.637 | 0.996 | 1.04 | 0.75
3 | NCI-H1437 | 0.994 | 0.985 | 1.01 | 1.06 | 0.981 | 0.937 | 0.968 | 0.955 | 1.03 | 0.981 | – | 0.957 | 0.842 | 0.894 | 0.895 | 0.958 | 0.954 | 0.758
4 | NCI-H1563 | 0.968 | 0.869 | 1.06 | 0.917 | 0.893 | 0.973 | 1.07 | 0.989 | 1.03 | 0.94 | 0.955 | 0.95 | 0.887 | 0.835 | 0.794 | 0.852 | 0.858 | –
5 | NCI-H1650 | 0.895 | 0.764 | 0.818 | 0.799 | 0.587 | 0.997 | 0.736 | 0.843 | 0.855 | 0.705 | 0.782 | 0.745 | 0.943 | 0.806 | – | 0.736 | 0.581 | 0.45
6 | NCI-H1651 | 1.05 | 0.984 | 0.991 | 1.08 | 0.932 | 0.943 | 0.961 | 0.979 | 0.96 | 0.893 | 0.946 | 0.966 | 0.837 | 0.851 | 0.831 | 0.898 | 0.781 | 0.868
7 | NCI-H1666 | 1.04 | 0.92 | 0.992 | 1.05 | 0.858 | 0.991 | 0.932 | 0.891 | 1.01 | 0.918 | 0.922 | 0.933 | 1.05 | 0.894 | 0.974 | 0.859 | 0.793 | 0.812
8 | NCI-H1703 | 0.997 | 0.743 | 1.1 | 1.19 | 0.904 | 1.02 | 0.673 | 0.963 | 0.775 | 0.537 | 1.07 | 0.845 | 0.672 | – | 0.515 | 0.547 | 0.234 | –
9 | NCI-H1734 | 1.01 | 0.942 | 1.05 | 0.95 | 0.703 | 0.954 | 0.93 | 1.03 | 0.894 | 1.01 | 0.983 | 0.901 | 0.737 | 0.618 | 0.67 | 0.639 | 0.648 | 0.705
10 | NCI-H1755 | 0.998 | 0.987 | 1.02 | 1.04 | 0.98 | 1.02 | 0.952 | 0.975 | 0.973 | 0.96 | 1.04 | 1.04 | 0.853 | 0.843 | 0.789 | 0.85 | 0.829 | 0.892
11 | NCI-H1792 | 0.928 | 0.896 | 0.853 | 1.04 | 0.809 | 0.878 | 0.829 | 0.974 | 0.858 | 0.874 | 0.844 | 0.708 | 0.941 | 0.973 | 0.924 | 0.991 | 0.894 | 0.594
12 | NCI-H1915 | 0.981 | 1.03 | 0.956 | 0.936 | 0.793 | 0.956 | 0.984 | 1.01 | 0.97 | 0.985 | 1.02 | 1.02 | 0.842 | 0.889 | 0.933 | 0.857 | 0.892 | 0.949
13 | NCI-H1944 | 0.981 | 0.884 | 0.899 | 0.817 | 0.574 | 0.909 | 0.92 | 0.902 | 0.813 | 0.965 | 1.08 | 0.939 | 1.01 | 1.1 | 1.15 | 1.07 | 0.942 | 0.94
14 | NCI-H1975 | 0.996 | 0.917 | 0.934 | 1.03 | 0.91 | 0.931 | 0.888 | 0.871 | 0.997 | 0.805 | 0.974 | 0.926 | 0.887 | 0.943 | 0.922 | 0.994 | 0.852 | 0.608
15 | NCI-H1993 | 1.04 | 0.916 | 0.833 | 0.95 | 0.664 | 1 | 0.922 | 0.944 | 0.871 | 0.754 | 0.813 | 0.885 | 0.924 | 0.77 | 0.861 | 0.77 | 0.72 | 0.703
16 | NCI-H2009 | 1 | 0.999 | 1.04 | 1.04 | 0.914 | 0.963 | 0.972 | 1.01 | 1.03 | 1.05 | 0.993 | 0.936 | 1.06 | 0.964 | 1.08 | 1.02 | 1.03 | 0.762
17 | NCI-H2023 | 1.02 | 0.884 | 0.962 | 1.15 | 0.87 | 0.909 | 0.947 | 1.02 | 0.917 | 0.936 | 1.02 | 0.756 | 0.661 | 0.556 | 0.624 | 0.49 | 0.499 | 0.265
18 | NCI-H2085 | 1.01 | 1.03 | 1.02 | 0.981 | 0.893 | 1.04 | 0.99 | 0.99 | 1.01 | 0.931 | 0.986 | – | 0.807 | 0.841 | 0.932 | 0.937 | 0.875 | 0.914
